# Results reported in patent US6794396B2, “Substituted pyridines useful for inhibiting cholesteryl ester transfer protein activity” (Pharmacia Corporation, priority 1998, dated 2004).
# How the values were obtained:
# [1] = biological target: T1, CETP in human plasma or serum pool (Homo sapiens, UniProt P11597); assay: Whole serum CETP activity assay (tritiated cholesterol ester); type: biochemical; conditions: 4 hours at 37° C.
# T1 construct: from tissue; host or cells: pooled human EDTA plasma or serum from healthy volunteers
# T1 sequence (P11597 18-493): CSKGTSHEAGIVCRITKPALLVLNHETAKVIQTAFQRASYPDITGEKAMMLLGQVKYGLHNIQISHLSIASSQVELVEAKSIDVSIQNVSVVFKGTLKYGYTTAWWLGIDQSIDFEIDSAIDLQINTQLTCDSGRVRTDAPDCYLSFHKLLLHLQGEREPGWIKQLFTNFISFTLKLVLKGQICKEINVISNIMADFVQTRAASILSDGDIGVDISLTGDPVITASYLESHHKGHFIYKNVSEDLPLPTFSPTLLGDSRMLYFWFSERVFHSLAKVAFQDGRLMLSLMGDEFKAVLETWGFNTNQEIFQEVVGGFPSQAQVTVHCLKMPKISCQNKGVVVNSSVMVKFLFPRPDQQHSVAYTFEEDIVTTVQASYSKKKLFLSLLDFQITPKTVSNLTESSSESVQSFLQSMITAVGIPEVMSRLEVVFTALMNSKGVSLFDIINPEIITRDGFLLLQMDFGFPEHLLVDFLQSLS
# Experimental: Blood was obtained from healthy volunteers recruited from the personnel of Monsanto Company, Saint Louis, Mo. Blood was either collected in tubes containing EDTA (EDTA plasma pool) or in tubes without EDTA (spun to form the serum pool). The EDTA human plasma pool or human serum pool, previously stored at −20° C., was thawed at room temperature, and centrifuged for 5 minutes to remove any particulate matter. Tritiated HDL, radiolabeled in the cholesteryl ester moiety ([^3H]CE-HDL) as described by Morton and Zilversmit (J. Biol. Chem., 256, 11992-95 (1981) which is incorporated by reference herein), was added to the plasma or serum to a final concentration of (25 μg/ml cholesterol).
# Inhibitor compounds were added to the plasma or serum as follows: Equal volumes of the plasma or serum containing the [^3H]CE-HDL (396 μl) were pipetted into micro tubes (Titertube®, Bio-Rad Laboratories, Hercules, Calif.). Compounds, usually dissolved as 20-50 mM stock solutions in DMSO, were serially diluted in DMSO (or an alternative solvent in some cases, such as dimethylformamide or ethanol). Four μl of each of the serial dilutions of inhibitor compounds or DMSO alone were then added to each of the plasma or serum tubes. The tubes were immediately mixed. Triplicate aliquots (100 μl) from each plasma or serum tube were then transferred to wells of 96-well round-bottomed polystyrene microtiter plates (Corning, Corning, N.Y.). Plates were sealed with plastic film and incubated at 37° C. for 4 hours.
# Test wells contained plasma or serum with dilutions of inhibitor compounds. Control wells contained plasma or serum with DMSO alone. Blank wells contained plasma or serum with DMSO alone that were left in the micro tubes at 4° C. for the 4 hour incubation and were added to the microtiter wells at the end of the incubation period. VLDL and LDL were precipitated by the addition of 10 μl of precipitating reagent (1% (w/v) Dextran Sulfate (Dextralip50)/0.5M magnesium chloride, pH 7.4) to all wells. The wells were mixed on a plate mixer and then incubated at ambient temperature for 10 min. The plates were then centrifuged at 1000×g for 30 mins at 10° C. The supernatants (50 μl) from each well were then transferred to Picoplate™ 96 plate wells (Packard, Meriden, Conn.) containing […] Microscint™-40 (Packard, Meriden, Conn.). The plates were heat-sealed (TopSeal™-P, Packard, Meriden, Conn.) according to the manufacturers directions and mixed for 30 min.
# Radioactivity was measured on a microplate scintillation counter (TopCount, Packard, Meriden, Conn.). […] The maximum percent transfer (in the control wells) was determined using the following equation: [formula]
# The percent of control transfer determined in the wells containing inhibitor compounds was determined as follows: [formula]
# IC50 values were then calculated from plots of % control versus concentration of inhibitor compound.
# CETP [2] = assay: Ex vivo CETP activity assay on serum of chronically infused hamsters; type: in vivo, golden Syrian hamster
# Description: (§1) Chronic inhibition of CETP can be achieved by administration of Dimethyl 5,5′-dithiobis[2-difluoromethyl)-4-(2-methylpropyl)-6-(trifluoromethyl)-3-pyridinecarboxylate] (Compound 181) to hamsters using Alzet pump delivery of Compound 181 into the jugular veins of hamsters. Inhibition of CETP should lead to an increase in HDL cholesterol with a concomitant decrease in LDL cholesterol. This can be determined by filtering serum obtained at different time intervals after initiation of inhibitor infusion and quantitating the amount of cholesterol in the LDL and HDL peaks, respectively. In addition the activity of CETP in the serum can be assessed in an ex vivo CETP activity assay.
# (§2) Serum cholesterol profiles were determined on pooled sera from each group. Total serum cholesterol and CETP activity were determined on individual serum samples. In hamsters administered Compound 181 chronically, there was a 30% reduction and 26% increase in LDL cholesterol and HDL cholesterol concentrations, respectively, compared to the vehicle group at Day 5. The decrease in LDL and increase in HDL persisted until Day 8 when the Alzet pump was exhausted. […] Therefore, it would appear that for every percent reduction in CETP activity determined by the ex vivo assay, there was a 2-3% decrease in LDL cholesterol or increase in HDL cholesterol concentrations.
# CETP [3] = assay: Chronic inhibition of CETP activity in vivo: Alzet pump infusion, serum LDL/HDL cholesterol profiles by FPLC; design: species or system golden Syrian hamster
# Description: as §1
# Male golden Syrian hamsters were maintained on a diet of normal rodent chow enriched with 0.24% cholesterol for at least 2 weeks prior to study. On Day 1, the hamsters were anesthetized with pentobarbital. An indwelling catheter was inserted into the jugular vein and exteriorized onto the back of the neck. The hamsters received […] of Compound 181 (38.5 mg/kg) in a 2% ethanol:98% PEG400 vehicle, or the 2% ethanol:98% PEG400 vehicle alone. An Alzet pump was then attached to the jugular catheter which delivered a steady infusion of 24 μl/day for a dose of 1.3 mg/day(9.2 mg/kg/day). The hamsters received the vehicle (2% ETOH:98% PEG400) or Compound 181 for 8 days. The hamsters were maintained for 12 days. Blood samples were taken on day 1 (pre-bleed) at the time of surgery, and on days 5, 7, 8 and 12. Fast Protein Liquid Chromatography (FPLC) on tandem Superose 6 columns of pooled hamster serum was performed to obtain cholesterol profiles for the two experimental groups.
# as §2
# [4] = Day 1 (pre-bleed), pooled serum
# [5] = Day 12, after pump exhausted at Day 8, pooled serum
smiles,measurement,setting,value
"COC(=O)c1c(C(F)F)nc(C(F)(F)F)c(SSc2c(C(F)(F)F)nc(C(F)F)c(C(=O)OC)c2CC(C)C)c1CC(C)C [Compound 181, Dimethyl 5,5′-Dithiobis[2-(difluoromethyl)-4-(2-methylpropyl)-6-(trifluoromethyl)-3-pyridinecarboxylate]]",IC50 whole serum CETP activity,[1],16 µM
same,average reduction in CETP activity by ex vivo assay,CETP [2]; Days 5 and 8,10%
same,CETP activity by ex vivo assay,CETP [2]; day 12,return to vehicle control level
same,"HDL cholesterol concentration, % of cholesterol concentration in vehicle group",CETP [3]; [4],105%
same,"LDL cholesterol concentration, % of cholesterol concentration in vehicle group",CETP [3]; [4],111%
same,increase in HDL cholesterol concentration compared to the vehicle group,CETP [3]; Day 5,26%
same,reduction in LDL cholesterol concentration compared to the vehicle group,CETP [3]; Day 5,30%
same,"HDL cholesterol concentration, % of cholesterol concentration in vehicle group",CETP [3]; [5],114%
same,"LDL cholesterol concentration, % of cholesterol concentration in vehicle group",CETP [3]; [5],90%
